According to patent US20040029965A1, “Formulations for reducing or eliminating toxicity of enviromental hormones containing ursodeoxycholic acid” (priority 2000, published 2004):

What was measured:
C57B1/6J mice [1] = experiment: Water uptake of mice after a single subcutaneous injection of TCDD; format: in vivo; set-up: unit not given here
Experimental: (§1) Male C57B1/6J mice of 5 weeks old having the average weight of 18-22 g which had been bred in CRJ (Charles River in Japan) were purchased and used in this example as experimental animals. Those mice were acclimated under the constant breeding condition, i.e. the temperature of 24±1° C., the humidity of 60±10% and the light and darkness cycle of 12 hours, for one week and thereafter, utilized in the experiment.
(§2) The Experimental animals were supplied with Purina powdered feed (purchased from Hae Eun Trade) and supplied with water ad libitum. All the animals were weighed twice a week during experimentation.
(§3) 2,3,7,8-tetrachlorodibenzo-p-dioxin (TCDD) dissolved in toluene (purity of 95% or more as a result of gas chromatography analysis), manufactured by Chem. Services Inc. in USA, was volatilized with nitrogen to obtain powder. The obtained powder was dissolved in a mixed solvent containing acetone and corn oil with a volume ratio of 1:6. The resulting solution each containing 110, 27.5 and 6.9 μg/kg of TCDD was subcutaneously injected to mice at a volume of 5 ml per body weight. […] The mice were supplied with the feed from 10 days before (pre-administration) to 60 days after administration of TCDD (post-administration).
(§4) The results are expressed as Mean±Standard Deviation values. For statistical analysis of the body weight, feed and water uptake, biochemical findings, hematological findings and the weight of organ in an acute toxicity test, verification was performed by one way analysis of variance (ANOVA) in case of equal distribution. In case significance was recognized in ANOVA, the Student's t-test was performed in the levels of p<0.05 and p<0.01.

C57B1/6J mice [2] = experiment: Feed uptake of mice after a single subcutaneous injection of TCDD; format: in vivo; set-up: unit not given here
Experimental: as §1, §2, §3, §4

[3] = TCDD 6.9 μg/kg + UDCA 0.125 wt %, 10 days
[4] = TCDD 6.9 μg/kg + UDCA 0.125 wt %, 20 days
[5] = TCDD 6.9 μg/kg + UDCA 0.125 wt %, 30 days
[6] = TCDD 6.9 μg/kg + UDCA 0.125 wt %, 40 days
[7] = TCDD 6.9 μg/kg + UDCA 0.125 wt %, 50 days
[8] = TCDD 6.9 μg/kg + UDCA 0.125 wt %, 60 days
[9] = TCDD 6.9 μg/kg + UDCA 0.25 wt %, 10 days
[10] = TCDD 6.9 μg/kg + UDCA 0.25 wt %, 20 days
[11] = TCDD 6.9 μg/kg + UDCA 0.25 wt %, 30 days
[12] = TCDD 6.9 μg/kg + UDCA 0.25 wt %, 40 days
[13] = TCDD 6.9 μg/kg + UDCA 0.25 wt %, 50 days
[14] = TCDD 6.9 μg/kg + UDCA 0.25 wt %, 60 days
[15] = TCDD 6.9 μg/kg + UDCA 0.5 wt %, 10 days
[16] = TCDD 6.9 μg/kg + UDCA 0.5 wt %, 20 days
[17] = TCDD 6.9 μg/kg + UDCA 0.5 wt %, 30 days
[18] = TCDD 6.9 μg/kg + UDCA 0.5 wt %, 40 days
[19] = TCDD 6.9 μg/kg + UDCA 0.5 wt %, 50 days
[20] = TCDD 6.9 μg/kg + UDCA 0.5 wt %, 60 days
[21] = TCDD 27.5 μg/kg + UDCA 0.125 wt %, 10 days
[22] = TCDD 27.5 μg/kg + UDCA 0.125 wt %, 20 days
[23] = TCDD 27.5 μg/kg + UDCA 0.125 wt %, 30 days
[24] = TCDD 27.5 μg/kg + UDCA 0.125 wt %, 40 days
[25] = TCDD 27.5 μg/kg + UDCA 0.125 wt %, 50 days
[26] = TCDD 27.5 μg/kg + UDCA 0.125 wt %, 60 days
[27] = TCDD 27.5 μg/kg + UDCA 0.25 wt %, 10 days
[28] = TCDD 27.5 μg/kg + UDCA 0.25 wt %, 20 days
[29] = TCDD 27.5 μg/kg + UDCA 0.25 wt %, 30 days
[30] = TCDD 27.5 μg/kg + UDCA 0.25 wt %, 40 days
[31] = TCDD 27.5 μg/kg + UDCA 0.25 wt %, 50 days
[32] = TCDD 27.5 μg/kg + UDCA 0.25 wt %, 60 days
[33] = TCDD 27.5 μg/kg + UDCA 0.5 wt %, 10 days
[34] = TCDD 27.5 μg/kg + UDCA 0.5 wt %, 20 days
[35] = TCDD 27.5 μg/kg + UDCA 0.5 wt %, 30 days
[36] = TCDD 27.5 μg/kg + UDCA 0.5 wt %, 40 days
[37] = TCDD 27.5 μg/kg + UDCA 0.5 wt %, 50 days
[38] = TCDD 27.5 μg/kg + UDCA 0.5 wt %, 60 days
[39] = TCDD 110.0 μg/kg + UDCA 0.125 wt %, 10 days
[40] = TCDD 110.0 μg/kg + UDCA 0.125 wt %, 20 days
[41] = TCDD 110.0 μg/kg + UDCA 0.125 wt %, 30 days
[42] = TCDD 110.0 μg/kg + UDCA 0.25 wt %, 10 days
[43] = TCDD 110.0 μg/kg + UDCA 0.25 wt %, 20 days
[44] = TCDD 110.0 μg/kg + UDCA 0.25 wt %, 30 days
[45] = TCDD 110.0 μg/kg + UDCA 0.25 wt %, 40 days
[46] = TCDD 110.0 μg/kg + UDCA 0.5 wt %, 10 days
[47] = TCDD 110.0 μg/kg + UDCA 0.5 wt %, 20 days
[48] = TCDD 110.0 μg/kg + UDCA 0.5 wt %, 30 days
[49] = TCDD 110.0 μg/kg + UDCA 0.5 wt %, 40 days
[50] = TCDD 110.0 μg/kg + UDCA 0.5 wt %, 50 days
[51] = TCDD 110.0 μg/kg + UDCA 0.5 wt %, 60 days

C[C@H](CCC(=O)O)[C@H]1CC[C@H]2[C@@H]3[C@@H](O)C[C@@H]4C[C@H](O)CC[C@]4(C)[C@H]3CC[C@]12C [UDCA, 3α, 7β-dihydroxy-5β-cholanoic acid]
water uptake (C57B1/6J mice [1]; [3]): 4.54 ± 0.71
water uptake (C57B1/6J mice [1]; [4]): 3.75 ± 0.90
water uptake (C57B1/6J mice [1]; [5]): 4.00 ± 0.00
water uptake (C57B1/6J mice [1]; [6]): 4.00 ± 0.00
water uptake (C57B1/6J mice [1]; [7]): 4.06 ± 1.34
water uptake (C57B1/6J mice [1]; [8]): 4.64 ± 0.51
water uptake (C57B1/6J mice [1]; [9]): 4.27 ± 1.16
water uptake (C57B1/6J mice [1]; [10]): 3.83 ± 1.04
water uptake (C57B1/6J mice [1]; [11]): 4.00 ± 0.00
water uptake (C57B1/6J mice [1]; [12]): 3.60 ± 0.57
water uptake (C57B1/6J mice [1]; [13]): 4.28 ± 1.02
water uptake (C57B1/6J mice [1]; [14]): 4.69 ± 0.43
water uptake (C57B1/6J mice [1]; [15]): 4.12 ± 0.94
water uptake (C57B1/6J mice [1]; [16]): 3.80 ± 0.70
water uptake (C57B1/6J mice [1]; [17]): 4.00 ± 0.63
water uptake (C57B1/6J mice [1]; [18]): 3.78 ± 0.31
water uptake (C57B1/6J mice [1]; [19]): 4.35 ± 1.08
water uptake (C57B1/6J mice [1]; [20]): 5.06 ± 0.70
water uptake (C57B1/6J mice [1]; [21]): 3.67 ± 1.10
water uptake (C57B1/6J mice [1]; [22]): 3.92 ± 1.13
water uptake (C57B1/6J mice [1]; [23]): 4.30 ± 0.42
water uptake (C57B1/6J mice [1]; [24]): 4.20 ± 0.28
water uptake (C57B1/6J mice [1]; [25]): 4.44 ± 0.79
water uptake (C57B1/6J mice [1]; [26]): 4.81 ± 0.26
water uptake (C57B1/6J mice [1]; [27]): 4.04 ± 0.75
water uptake (C57B1/6J mice [1]; [28]): 3.92 ± 0.63
water uptake (C57B1/6J mice [1]; [29]): 4.00 ± 0.00
water uptake (C57B1/6J mice [1]; [30]): 4.00 ± 0.00
water uptake (C57B1/6J mice [1]; [31]): 4.44 ± 0.79
water uptake (C57B1/6J mice [1]; [32]): 4.81 ± 0.26
water uptake (C57B1/6J mice [1]; [33]): 3.91 ± 0.95
water uptake (C57B1/6J mice [1]; [34]): 4.35 ± 0.98
water uptake (C57B1/6J mice [1]; [35]): 4.44 ± 0.00
water uptake (C57B1/6J mice [1]; [36]): 4.44 ± 0.00
water uptake (C57B1/6J mice [1]; [37]): 4.41 ± 1.00
water uptake (C57B1/6J mice [1]; [38]): 4.88 ± 0.33
water uptake (C57B1/6J mice [1]; [39]): 4.03 ± 1.21
water uptake (C57B1/6J mice [1]; [40]): 4.07 ± 0.64
water uptake (C57B1/6J mice [1]; [41]): 3.33 ± 0.94
water uptake (C57B1/6J mice [1]; [42]): 3.79 ± 1.06
water uptake (C57B1/6J mice [1]; [43]): 3.83 ± 0.14
water uptake (C57B1/6J mice [1]; [44]): 4.67 ± 0.94
water uptake (C57B1/6J mice [1]; [45]): 4.14 ± 0.20
water uptake (C57B1/6J mice [1]; [46]): 3.75 ± 0.50
water uptake (C57B1/6J mice [1]; [47]): 3.42 ± 0.80
water uptake (C57B1/6J mice [1]; [48]): 4.20 ± 0.28
water uptake (C57B1/6J mice [1]; [49]): 3.50 ± 0.71
water uptake (C57B1/6J mice [1]; [50]): 3.14 ± 0.59
water uptake (C57B1/6J mice [1]; [51]): 3.32 ± 0.33
feed uptake (C57B1/6J mice [2]; [3]): 4.64 ± 0.73
feed uptake (C57B1/6J mice [2]; [4]): 4.55 ± 0.44
feed uptake (C57B1/6J mice [2]; [5]): 3.83 ± 0.36
feed uptake (C57B1/6J mice [2]; [6]): 3.83 ± 0.36
feed uptake (C57B1/6J mice [2]; [7]): 3.19 ± 0.13
feed uptake (C57B1/6J mice [2]; [8]): 2.59 ± 0.23
feed uptake (C57B1/6J mice [2]; [9]): 4.39 ± 0.79
feed uptake (C57B1/6J mice [2]; [10]): 4.86 ± 0.90
feed uptake (C57B1/6J mice [2]; [11]): 3.78 ± 0.57
feed uptake (C57B1/6J mice [2]; [12]): 3.78 ± 0.57
feed uptake (C57B1/6J mice [2]; [13]): 3.18 ± 0.56
feed uptake (C57B1/6J mice [2]; [14]): 2.90 ± 0.30
feed uptake (C57B1/6J mice [2]; [15]): 4.48 ± 0.67
feed uptake (C57B1/6J mice [2]; [16]): 4.00 ± 1.11
feed uptake (C57B1/6J mice [2]; [17]): 4.66 ± 0.67
feed uptake (C57B1/6J mice [2]; [18]): 4.66 ± 0.67
feed uptake (C57B1/6J mice [2]; [19]): 3.12 ± 0.40
feed uptake (C57B1/6J mice [2]; [20]): 3.35 ± 1.56
feed uptake (C57B1/6J mice [2]; [21]): 4.15 ± 0.64
feed uptake (C57B1/6J mice [2]; [22]): 3.85 ± 0.43
feed uptake (C57B1/6J mice [2]; [23]): 3.99 ± 0.34
feed uptake (C57B1/6J mice [2]; [24]): 3.72 ± 0.21
feed uptake (C57B1/6J mice [2]; [25]): 2.90 ± 0.98
feed uptake (C57B1/6J mice [2]; [26]): 2.96 ± 0.29
feed uptake (C57B1/6J mice [2]; [27]): 4.07 ± 0.40
feed uptake (C57B1/6J mice [2]; [28]): 3.41 ± 0.71
feed uptake (C57B1/6J mice [2]; [29]): 3.59 ± 0.38
feed uptake (C57B1/6J mice [2]; [30]): 3.32 ± 0.39
feed uptake (C57B1/6J mice [2]; [31]): 3.16 ± 0.24
feed uptake (C57B1/6J mice [2]; [32]): 3.10 ± 0.77
feed uptake (C57B1/6J mice [2]; [33]): 4.31 ± 1.49
feed uptake (C57B1/6J mice [2]; [34]): 4.67 ± 1.13
feed uptake (C57B1/6J mice [2]; [35]): 3.99 ± 0.36
feed uptake (C57B1/6J mice [2]; [36]): 3.49 ± 0.57
feed uptake (C57B1/6J mice [2]; [37]): 3.18 ± 0.55
feed uptake (C57B1/6J mice [2]; [38]): 3.17 ± 0.49
feed uptake (C57B1/6J mice [2]; [39]): 3.77 ± 0.43
feed uptake (C57B1/6J mice [2]; [40]): 3.64 ± 1.16
feed uptake (C57B1/6J mice [2]; [41]): 2.94 ± 0.64
feed uptake (C57B1/6J mice [2]; TCDD 110.0 μg/kg + UDCA 0.125 wt %, 40 days): 1.99 ± 0.58
feed uptake (C57B1/6J mice [2]; [42]): 3.65 ± 0.33
feed uptake (C57B1/6J mice [2]; [43]): 3.09 ± 0.44
feed uptake (C57B1/6J mice [2]; [44]): 3.23 ± 0.55
feed uptake (C57B1/6J mice [2]; [45]): 3.06 ± 1.89
feed uptake (C57B1/6J mice [2]; [46]): 3.87 ± 0.57
feed uptake (C57B1/6J mice [2]; [47]): 3.77 ± 0.62
feed uptake (C57B1/6J mice [2]; [48]): 3.39 ± 0.24
feed uptake (C57B1/6J mice [2]; [49]): 2.72 ± 0.72
feed uptake (C57B1/6J mice [2]; [50]): 2.19 ± 0.22
feed uptake (C57B1/6J mice [2]; [51]): 2.05 ± 0.62
